# Source: patent US12084411B2, “Hinokitiol analogues, methods of preparing and pharmaceutical compositions thereof” (The Board of Trustees of the University of Illinois, priority 2018, dated 2024)
# Assays:
# [1] = Single-dose in vivo pharmacokinetics of hinokitiol in mice; conditions: 100 mg/kg
# Description: FIGS. 29A-29B show single-dose in vivo pharmacokinetics of hinokitiol in mice. Mice were mixed C57BL/6 and 129/Sv background (2-3 mo. old) were administered various concentrations of hinokitiol (30 or 100 mg Hino/kg body weight) by two different routes (A) intraperitoneal injection and (B) oral gavage. Plasma samples were collected at various timepoints (5-360 minutes) for drug measurement by HPLC.
# In addition to evaluating the pharmacodynamics (effect) of hinokitiol in Al, the pharmacokinetics of hinokitiol were characterized to guide the optimal dose scheme for treatment.
# [2] = Exchangeability of ferric iron bound to hinokitiol; format: physicochemical
# Description: The reversible exchange of ferric iron bound to hinokitiol was determined similar to previously described (69). […] The solution was equilibrated for 1 hour at 37° C., and then an equal amount of ^55FeCl3 (100 nM) was added. The solution was incubated at 37° C., and at the indicated time points an aliquot was taken and added to water. The iron-hinokitiol complex was immediately separated from unbound iron through extraction with ethyl acetate and the radioactive counts were determined by scintillation counting.
# transferrin = transferrin (Homo sapiens, UniProt P02787); assay: Removal of 55Fe from transferrin; format: biochemical; conditions: buffered solution, 1 nM transferrin
# Chain of transferrin (P02787 20-698, species assumed): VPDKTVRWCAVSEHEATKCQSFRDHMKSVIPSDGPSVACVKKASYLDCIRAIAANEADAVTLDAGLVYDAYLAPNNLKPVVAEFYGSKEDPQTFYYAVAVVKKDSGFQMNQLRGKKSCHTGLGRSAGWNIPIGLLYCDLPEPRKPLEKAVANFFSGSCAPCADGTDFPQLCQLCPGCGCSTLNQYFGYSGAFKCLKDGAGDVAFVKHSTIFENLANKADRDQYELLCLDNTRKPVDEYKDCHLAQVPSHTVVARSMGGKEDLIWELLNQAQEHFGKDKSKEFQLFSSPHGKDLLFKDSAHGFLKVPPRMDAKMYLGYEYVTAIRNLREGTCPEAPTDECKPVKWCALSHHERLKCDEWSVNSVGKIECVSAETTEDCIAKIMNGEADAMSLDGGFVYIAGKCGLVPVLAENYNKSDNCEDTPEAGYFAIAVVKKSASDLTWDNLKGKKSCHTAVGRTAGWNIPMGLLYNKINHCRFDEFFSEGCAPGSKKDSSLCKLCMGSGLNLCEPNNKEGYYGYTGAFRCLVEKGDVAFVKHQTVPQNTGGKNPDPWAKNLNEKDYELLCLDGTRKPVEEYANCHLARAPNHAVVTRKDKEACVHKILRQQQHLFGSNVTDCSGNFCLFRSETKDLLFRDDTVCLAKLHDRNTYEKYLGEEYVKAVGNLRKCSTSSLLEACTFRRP
# Description: The capacity for hinokitiol to remove iron from transferrin was determined through a ^55Fe assay adapted from Cerami and coworkers (62). ^55Fe was loaded onto transferrin (Tf) similar to previously described in PBS buffer (63). Increasing hinokitiol doses (from 1000X stocks in DMSO) were added to a solution of ^55Fe2Tf (1 nM) in PBS buffer to give the final indicated concentrations. The solution was incubated at 37° C. for 3 hours. After incubation, any ^55Fe bound to hinokitiol was isolated by extraction of iron:hinokitiol complexes with EtOAc. The radioactive levels in the organic layer were determined after dilution in scintillation cocktail.
# [3] = system: FPN1-deficient J774 macrophages; assay: 55Fe release from FPN1-deficient J774 macrophages; format: cell-based, mouse; conditions: hepcidin-treated cells
# Description: To knockdown FPN1 levels in wild type J774 cells, the cells were incubated with […] mouse hepcidin (Peptides International PLP-3773-PI) for 1 hour in J774 Complete media similar to previously described (41) before ^55Fe was loaded into J774 cells and ^55Fe release was determined.
# J774 cells were grown in 12-well plates to ˜80% confluency. The cells were then treated with vehicle or hepcidin in fresh J774 Complete media (1 mL) and incubated at 37° C. for 1 hour. After incubation, the media was aspirated, and then a ^55Fe2Tf (50 nM) solution in J774 Complete media (1 mL) containing vehicle or hepcidin was added. The cells were incubated at 37° C. for 10 minutes, and the media was removed. The cells were rinsed with PBS (×2), and then rinsed with J774 Complete media (1 mL) for 10 minutes at 37° C. […] At the indicated times, aliquots (<100 μL) of the media were removed, diluted in scintillation cocktail, and radioactivity was determined by liquid scintillation counting. […] The cell lysate was diluted in scintillation cocktail and intracellular ^55Fe levels were determined by liquid scintillation counting. The % ^55Fe release was determined by the ratio of extracellular ^55Fe to total (intracellular+ extracellular) ^55Fe at the indicated times.
# [4] = system: DMT1-deficient Caco-2 monolayers; assay: 55Fe immunoprecipitation of ferritin in Caco-2 monolayers; format: cell-based, Human; conditions: apical hinokitiol 500 nM
# Description: Immunoprecipitation of ferritin was performed using human anti-FTL1 (Santa Cruz sc-74513) and Protein G PLUS-Agarose beads (Santa Cruz sc-2002). […] Cell lysate was incubated with primary antibody (1:100 dilution) at room temperature for 1 hour, then with the secondary antibody (1:10 dilution) at room temperature for 1 hour with constant mixing. Repeated centrifugations and PBS rinses were performed, and the radioactive levels in the agarose pellet were determined by dilution in scintillation fluid.
# [5] = Determination of the pKa of hinokitiol; format: physicochemical; conditions: 0.1 M KCl solution in water, spectrophotometric titration
# Description: The pKa of hinokitiol was determined by spectrophotometric titration with varying pH. Hinokitiol (100 μM) was dissolved in a 0.1 M KCl solution in H2O and acidified to pH=3.0 (using 0.1 M HCl). The UV-Vis spectrum was repeatedly obtained upon sequential titration of 0.1 M KOH to obtain a range of pHs (3.0, 3.4, 3.9, 4.2, 4.6, 4.9, 6.0, 6.4, 7.0, 7.2, 7.6, 8.4, 9.3, 9.7, 10.4, 10.9, 11.7, 12.0).
# fet3Δftr1Δ yeast = assay: Growth rescue of iron-deficient yeast with small molecules on agar plates; format: cell-based, Saccharomyces cerevisiae; conditions: low iron SD-agar plates, 10 μM FeCl3
# MEL = assay: WST-8 toxicity in MEL cells; format: cell-based, mouse; conditions: MEL cells, three days, 1 μM
# Description: (§1) Determination of small molecule-mediated toxicity in Caco-2, MEL, and/or J774 cells was performed according to manufacturer instructions using a WST-8 kit (Cayman Chemical 10010199) similar to previously reported (76) using a 1000× stock of the indicated small molecule in DMSO to give the indicated final concentration.
# [6] = WST-8 toxicity in MEL cells; format: cell-based, mouse; conditions: mouse, wild type MEL cells; Wild Type MEL, WST-8 assay after ≥24 hours of incubation
# Description: as §1
# [7] = Metal efflux from liposomes using PhenGreen; format: biochemical
# Description: Hinokitiol-promoted release of different divalent metals from POPC liposomes was performed by tracking the quenching of PhenGreen (Fisher P14312) similar to previously reported (67, 68). […] In all cases, liposomes were prepared using 5 mM of either FeCl2, MnCl2, CoCl2, NiCl2, ZnCl2, or CuCl2 added to the internal buffer. […] The liposome suspension was diluted to 1 mM of phosphorus. The liposome suspension was transferred to a 96-well plate, and either DMSO or 2 μM hinokitiol (from a 40X stock in DMSO) was added at t=2 min. […] After one hour, the liposomes were lysed with Triton-X and the fluorescence was recorded. […] The DMSO-treated and hinokitiol-treated liposomes had similar fluorescence quenching levels after lysis. […] The t1/2 values were calculated using an asymptotic fit in OriginPro. The t1/2 values indicate the time required to reach half of the maximum metal efflux for each metal.
structure (smiles),measurement,setting,value
CC(C)c1cccc(=O)c(O)c1 [hinokitiol],half-life,[1],increased half-life
same,time to equilibrium between 55Fe- and 56Fe-hinokitiol complex,"[2]; 10 mM Mes/Tris, pH 7.0",within one hour
same,exchange of bound 56Fe with 55Fe in solution,"[2]; within 10 minutes, pH 7.0, 37° C.",> 20%
same,excess of hinokitiol relative to transferrin needed to remove iron,transferrin,"> 1,000 fold"
same,iron release,[3],time- and dose-dependently restored iron release
same,55Fe incorporation into ferritin,[4],allows for ^55Fe incorporation into ferritin
same,pKa,[5],7.33
same,growth rescue of fet3Δftr1Δ yeast,fet3Δftr1Δ yeast,highly effective
same,observable toxicity,MEL,without observable toxicity
same,EC90,[6],24 µM
same,Cu^II transport rate relative to Fe^II in liposomes,[7],80 fold
